Assay type in all cases: biochemical
The target of experiment [1] is T1, PTPσ (Homo sapiens, UniProt Q13332).
T1 construct: gene PTPRS; GST-tagged recombinant PTPσ, all residues C-terminal to the transmembrane domain (BC104812 cDNA; aa 883-1501)
T1 sequence (Q13332 1330-1948): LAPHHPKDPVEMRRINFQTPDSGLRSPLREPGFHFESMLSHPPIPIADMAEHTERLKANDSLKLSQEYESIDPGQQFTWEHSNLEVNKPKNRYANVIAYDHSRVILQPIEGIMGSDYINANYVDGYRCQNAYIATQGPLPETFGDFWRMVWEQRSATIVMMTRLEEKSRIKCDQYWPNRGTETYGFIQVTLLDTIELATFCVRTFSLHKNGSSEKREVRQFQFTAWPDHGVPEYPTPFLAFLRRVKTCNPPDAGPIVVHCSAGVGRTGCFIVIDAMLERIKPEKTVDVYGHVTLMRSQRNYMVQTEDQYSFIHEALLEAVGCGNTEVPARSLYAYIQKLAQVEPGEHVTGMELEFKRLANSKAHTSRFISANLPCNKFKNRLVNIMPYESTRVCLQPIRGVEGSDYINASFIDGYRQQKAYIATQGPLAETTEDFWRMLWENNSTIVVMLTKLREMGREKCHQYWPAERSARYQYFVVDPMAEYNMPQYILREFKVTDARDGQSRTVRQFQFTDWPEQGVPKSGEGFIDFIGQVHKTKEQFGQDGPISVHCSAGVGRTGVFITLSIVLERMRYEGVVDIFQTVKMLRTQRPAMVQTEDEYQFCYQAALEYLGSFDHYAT
The experiment in a line: pNPP phosphatase assay with purified GST-PTPσ, positive control.

In experiment [2] the target is T1, PTPσ. The experiment in a line: pNPP phosphatase assay with purified GST-PTPσ, dose-response, with and without catalase.
Experiment [3] deals with T1, PTPσ. The experiment in a line: Km from initial velocities of dephosphorylation ([…] nm absorbance).

Turning to `[O]=[V]([OH])([OH])[OH]` [Na3VO4, sodium orthovanadate], the “pNPP phosphatase assay with purified GST-PTPσ, positive control” value on PTPσ [1] was “Sodium orthovanadate (Na3VO4) is a pan inhibitor of PTPs and was included as a positive control”. What is called IC50 is the concentration that inhibits the measured activity by half. A low value points to inhibition by little substance. As for `O=C(C=CNc1cc([N+](=O)[O-])ccc1O)c1ccc(Cl)c(Cl)c1` [compound 36, 1-(3,4-dichlorophenyl)-3-[(2-hydroxy-5-nitrophenyl)amino]-2-propen-1-one], at PTPσ [2], it took 10 µM to reach half-maximal inhibition (IC50). By Km is commonly meant the concentration of substrate that gives half-maximal velocity. For the compound para-nitrophenyl phosphate [pNPP], at PTPσ [3], the Km turned out to be 250 µM.

Values taken from PMC3502291, “Identification of Small Molecule Inhibitors of PTPσ through an Integrative Virtual and Biochemical Approach” (PLoS ONE, 2012).
